Drawing on PubChem BioAssay AID504578 (NMMLSC, 2011), this text covers disaggregation rating for seven compounds.

For this assay, the system named is U937 / B78H1-VCAM-1 aggregate disruption, flow cytometry. The experiment in a line: U937 and B78H1-VCAM-1 aggregate breakup by VLA-4 blockers – cell-based, flow cytometry, set 1, orthogonal assay (AID 504578). To be noted: at 20 µM; stronger effect = higher value.

Structures are written as SMILES.

For the compound `c1ccc2c(-c3ccc(OCCN4CCCCC4)cc3)c(-c3ccsc3)sc2c1`, the disaggregation rating is 1.

For the compound `c1ccc(-c2sc3ccccc3c2-c2ccc(OCCN3CCCC3)cc2)cc1`, the disaggregation rating is 1. The result for `COc1cccc(-c2sc3ccccc3c2-c2ccc(OCCN3CCCC3)cc2)c1` reads 1; that for `COc1ccc(-c2sc3ccccc3c2-c2ccc(OCCN(C)C)cc2)cc1`, 2; that for `c1ccc2c(-c3ccc(OCCN4CCCC4)cc3)c(-c3ccsc3)sc2c1`, 2.

Turning to `COc1cccc(-c2sc3ccccc3c2-c2ccc(OCCN(C)C)cc2)c1`, the disaggregation rating was 1. For `CN(C)CCOc1ccc(-c2c(-c3ccccc3)sc3ccccc23)cc1` the value was 2.
